Laboratory results taken from ChEMBL document CHEMBL1201862, “PubChem BioAssay data set” (2004).
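A five-concentration, 48-hour dose response in 96-well plates underlies each endpoint, interpolated linearly between surrounding concentrations. Here, GI50 denotes the concentration required for 50% inhibition of growth.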 The source made the active and inactive calls. Cut-off read from the data, not from the text of the source: active = GI50 up to about 1.1 µM and inactive = higher.

Assays:
Assay in all cases: inhibition of tumour cell growth, NCI panel, 48 h
SN12C = system: SN12C
NCI-H23 = system: NCI-H23
M14 = system: M14
KM12 = system: KM12
Malme-3M = system: Malme-3M
UO-31 = system: UO-31
NCI/ADR-RES = system: NCI/ADR-RES
NCI-H460 = system: NCI-H460
MOLT-4 = system: MOLT-4
RPMI-8226 = system: RPMI-8226
HT-29 = system: HT-29
OVCAR-3 = system: OVCAR-3
SK-MEL-2 = system: SK-MEL-2
EKVX = system: EKVX
MDA-N = system: MDA-N
DU-145 = system: DU-145
SF-295 = system: SF-295
A498 = system: A498
A549 = system: A549
COLO 205 = system: COLO 205
SK-MEL-5 = system: SK-MEL-5
OVCAR-8 = system: OVCAR-8
K562 = system: K562
OVCAR-5 = system: OVCAR-5
MDA-MB-231 = system: MDA-MB-231
ACHN = system: ACHN
MDA-MB-435 = system: MDA-MB-435
NCI-H522 = system: NCI-H522
MCF7 = system: MCF7
SW-620 = system: SW-620
OVCAR-4 = system: OVCAR-4
SK-MEL-28 = system: SK-MEL-28
SR = system: SR
BT-549 = system: BT-549
Hs-578T = system: Hs-578T
UACC-62 = system: UACC-62
HCC 2998 = system: HCC 2998
HCT-116 = system: HCT-116
TK-10 = system: TK-10
LOX IMVI = system: LOX IMVI
786-0 = system: 786-0
NCI-H226 = system: NCI-H226
U-251 = system: U-251
T47D = system: T47D
HOP-62 = system: HOP-62
CAKI-1 = system: CAKI-1
HOP-92 = system: HOP-92
UACC-257 = system: UACC-257
RXF 393 = system: RXF 393
SK-OV-3 = system: SK-OV-3
HCT-15 = system: HCT-15
SNB-19 = system: SNB-19
SF-268 = system: SF-268
CCRF-CEM = system: CCRF-CEM
SNB-75 = system: SNB-75
SF-539 = system: SF-539
HL-60 = system: HL-60
IGROV-1 = system: IGROV-1
PC-3 = system: PC-3

Q: For COc1cc(/C=C2/SC(c3ccccc3)N(Cc3ccccc3)C2=O)cc(OC)c1OC (stereo not given), which GI50 (SN12C) is on record?
A: 21.5 µM (inactive)

Q: And the GI50 (NCI-H23)?
A: 31.6 µM (inactive)

Q: And the GI50 (M14)?
A: 75.3 µM (inactive)

Q: What about the GI50 (KM12) of the same compound?
A: 27.2 µM (inactive)

Q: And the GI50 (Malme-3M)?
A: 38.4 µM (inactive)

Q: And the GI50 (UO-31)?
A: 40.5 µM (inactive)

Q: And the GI50 (NCI/ADR-RES)?
A: 35 µM (inactive)

Q: What about the GI50 (NCI-H460) of the same compound?
A: 38.2 µM (inactive)

Q: And the GI50 (MOLT-4)?
A: 14.4 µM (inactive)

Q: What about the GI50 (RPMI-8226) of the same compound?
A: 14.4 µM (inactive)

Q: And the GI50 (HT-29)?
A: 25.9 µM (inactive)

Q: And the GI50 (OVCAR-3)?
A: 33.7 µM (inactive)

Q: What about the GI50 (SK-MEL-2) of the same compound?
A: 47.8 µM (inactive)

Q: What about the GI50 (EKVX) of the same compound?
A: 42.9 µM (inactive)

Q: What about the GI50 (MDA-N) of the same compound?
A: 29.6 µM (inactive)

Q: And the GI50 (DU-145)?
A: 42.7 µM (inactive)

Q: And the GI50 (SF-295)?
A: 30.6 µM (inactive)

Q: And the GI50 (A498)?
A: 49.1 µM (inactive)

Q: And the GI50 (A549)?
A: 67 µM (inactive)

Q: What about the GI50 (COLO 205) of the same compound?
A: 19.8 µM (inactive)

Q: What about the GI50 (SK-MEL-5) of the same compound?
A: 12.1 µM (inactive)

Q: What about the GI50 (OVCAR-8) of the same compound?
A: 37.7 µM (inactive)

Q: What about the GI50 (K562) of the same compound?
A: 16.4 µM (inactive)

Q: What about the GI50 (OVCAR-5) of the same compound?
A: 80.9 µM (inactive)

Q: And the GI50 (MDA-MB-231)?
A: > 100 µM (inactive)

Q: What about the GI50 (ACHN) of the same compound?
A: 44.8 µM (inactive)

Q: And the GI50 (MDA-MB-435)?
A: 53.2 µM (inactive)

Q: What about the GI50 (NCI-H522) of the same compound?
A: 17.2 µM (inactive)

Q: And the GI50 (MCF7)?
A: 30.3 µM (inactive)

Q: And the GI50 (SW-620)?
A: 63.2 µM (inactive)

Q: What about the GI50 (OVCAR-4) of the same compound?
A: 31.4 µM (inactive)

Q: What about the GI50 (SK-MEL-28) of the same compound?
A: 47.1 µM (inactive)

Q: What about the GI50 (SR) of the same compound?
A: 14.2 µM (inactive)

Q: And the GI50 (BT-549)?
A: 39 µM (inactive)

Q: And the GI50 (Hs-578T)?
A: 40.6 µM (inactive)

Q: And the GI50 (UACC-62)?
A: 42.5 µM (inactive)

Q: And the GI50 (HCC 2998)?
A: 80.5 µM (inactive)

Q: What about the GI50 (HCT-116) of the same compound?
A: 14.9 µM (inactive)

Q: And the GI50 (TK-10)?
A: 53 µM (inactive)

Q: And the GI50 (LOX IMVI)?
A: 34.8 µM (inactive)

Q: And the GI50 (786-0)?
A: 33.2 µM (inactive)

Q: And the GI50 (NCI-H226)?
A: 53.7 µM (inactive)

Q: What about the GI50 (U-251) of the same compound?
A: 36.7 µM (inactive)

Q: And the GI50 (T47D)?
A: 27.2 µM (inactive)

Q: What about the GI50 (HOP-62) of the same compound?
A: 54.3 µM (inactive)

Q: What about the GI50 (CAKI-1) of the same compound?
A: > 100 µM (inactive)

Q: And the GI50 (HOP-92)?
A: 32.8 µM (inactive)

Q: What about the GI50 (UACC-257) of the same compound?
A: 33.7 µM (inactive)

Q: What about the GI50 (RXF 393) of the same compound?
A: 7.14 µM (inactive)

Q: And the GI50 (SK-OV-3)?
A: 41.1 µM (inactive)

Q: And the GI50 (HCT-15)?
A: 38.7 µM

Q: What about the GI50 (SNB-19) of the same compound?
A: > 100 µM (inactive)

Q: And the GI50 (SF-268)?
A: 48.1 µM (inactive)

Q: C[C@H](C(O)CC(=O)C(C)(C)O)[C@H]1CC[C@@]2(C)[C@@H]3CC[C@H]4C(C)(C)[C@@H](OC5OC(COC6OC(CO)C(O)C(O)C6O)C(O)C(O)C5O)CC[C@]4(C)C3=CC[C@]12C (stereo not given in full) was tested. Which GI50 (SN12C) did it give?
A: > 100 µM (inactive)

Q: What about the GI50 (NCI-H23) of the same compound?
A: > 100 µM (inactive)

Q: What about the GI50 (M14) of the same compound?
A: > 100 µM (inactive)

Q: And the GI50 (KM12)?
A: > 100 µM (inactive)

Q: What about the GI50 (Malme-3M) of the same compound?
A: > 100 µM (inactive)

Q: What about the GI50 (UO-31) of the same compound?
A: > 100 µM (inactive)

Q: And the GI50 (CCRF-CEM)?
A: > 100 µM (inactive)

Q: What about the GI50 (SNB-75) of the same compound?
A: > 100 µM (inactive)

Q: What about the GI50 (NCI-H460) of the same compound?
A: > 100 µM (inactive)

Q: And the GI50 (RPMI-8226)?
A: > 100 µM (inactive)

Q: What about the GI50 (HT-29) of the same compound?
A: > 100 µM (inactive)

Q: What about the GI50 (OVCAR-3) of the same compound?
A: > 100 µM (inactive)

Q: And the GI50 (SK-MEL-2)?
A: > 100 µM (inactive)

Q: What about the GI50 (EKVX) of the same compound?
A: > 100 µM (inactive)

Q: And the GI50 (MDA-N)?
A: > 100 µM (inactive)

Q: What about the GI50 (DU-145) of the same compound?
A: > 100 µM (inactive)

Q: And the GI50 (SF-539)?
A: > 100 µM (inactive)

Q: And the GI50 (SF-295)?
A: > 100 µM (inactive)

Q: And the GI50 (HL-60)?
A: > 100 µM (inactive)

Q: And the GI50 (A498)?
A: > 100 µM (inactive)

Q: And the GI50 (A549)?
A: > 100 µM (inactive)

Q: And the GI50 (COLO 205)?
A: > 100 µM (inactive)

Q: And the GI50 (SK-MEL-5)?
A: > 100 µM (inactive)

Q: And the GI50 (OVCAR-8)?
A: > 100 µM (inactive)

Q: What about the GI50 (K562) of the same compound?
A: > 100 µM (inactive)

Q: What about the GI50 (OVCAR-5) of the same compound?
A: > 100 µM (inactive)

Q: What about the GI50 (MDA-MB-231) of the same compound?
A: > 100 µM (inactive)

Q: And the GI50 (ACHN)?
A: > 100 µM (inactive)

Q: What about the GI50 (MDA-MB-435) of the same compound?
A: > 100 µM (inactive)

Q: What about the GI50 (NCI-H522) of the same compound?
A: > 100 µM (inactive)

Q: What about the GI50 (MCF7) of the same compound?
A: > 100 µM (inactive)

Q: And the GI50 (SW-620)?
A: > 100 µM (inactive)

Q: What about the GI50 (OVCAR-4) of the same compound?
A: > 100 µM (inactive)

Q: What about the GI50 (SK-MEL-28) of the same compound?
A: > 100 µM (inactive)

Q: And the GI50 (SR)?
A: > 100 µM (inactive)

Q: And the GI50 (BT-549)?
A: > 100 µM (inactive)

Q: What about the GI50 (Hs-578T) of the same compound?
A: > 100 µM (inactive)

Q: What about the GI50 (UACC-62) of the same compound?
A: > 100 µM (inactive)

Q: What about the GI50 (HCC 2998) of the same compound?
A: > 100 µM (inactive)

Q: What about the GI50 (HCT-116) of the same compound?
A: > 100 µM (inactive)

Q: What about the GI50 (TK-10) of the same compound?
A: > 100 µM (inactive)

Q: And the GI50 (LOX IMVI)?
A: > 100 µM (inactive)

Q: What about the GI50 (IGROV-1) of the same compound?
A: > 100 µM (inactive)

Q: What about the GI50 (786-0) of the same compound?
A: > 100 µM (inactive)

Q: And the GI50 (PC-3)?
A: > 100 µM (inactive)

Q: What about the GI50 (NCI-H226) of the same compound?
A: > 100 µM (inactive)

Q: And the GI50 (U-251)?
A: > 100 µM (inactive)

Q: What about the GI50 (T47D) of the same compound?
A: > 100 µM (inactive)

Q: What about the GI50 (HOP-62) of the same compound?
A: > 100 µM (inactive)

Q: And the GI50 (CAKI-1)?
A: > 100 µM (inactive)

Q: What about the GI50 (HOP-92) of the same compound?
A: > 100 µM (inactive)

Q: And the GI50 (UACC-257)?
A: > 100 µM (inactive)

Q: What about the GI50 (RXF 393) of the same compound?
A: > 100 µM (inactive)

Q: What about the GI50 (SK-OV-3) of the same compound?
A: > 100 µM (inactive)

Q: And the GI50 (HCT-15)?
A: > 100 µM

Q: What about the GI50 (SNB-19) of the same compound?
A: > 100 µM (inactive)

Q: And the GI50 (SF-268)?
A: > 100 µM (inactive)
